Experimental data published in patent publication US20170246228A1, “METHOD FOR SUPPRESSING PROLIFERATION AND/OR INDUCING APOPTOSIS OF CANCER CELLS” (Maruhachi Muramatsu, Inc., priority 2016, published 2017).

Each molecule was assayed on MDA-MB-231 cells (assay: Cell proliferation of MDA-MB-231 cells with inhibitors that induce cell-cycle arrest, 3 days of culture). Conditions: absence of S. horneri active component, butyrate 10 and 100 μM, roscovitine 10 and 100 nM, sulforaphane 1 and 10 nM, FIG. 2(A).
Format: cell-based, human
Method: Cells were detached from each culture dishes using 0.2% trpysin plus 0.02% EDTA in Ca^2+/Mg^2+-free PBS for 2 min at 37° C., cells were collected after centrifugation. Cells were resuspended on PBS solution and stained with eosin. Cell numbers were counted under a microscope using a Hemocytometer plate. For each dish, we took the average of two countings.
Data are expressed as the mean±standard deviation (SD). Statistical significance was determined using GraphPad InStat version 3 for Windows XP (GraphPad Software Inc. La Jolla, Calif.). Multiple comparisons were performed by one-way analysis of variance (ANOVA) with Tukey-Kramer multiple comparisons post-test for parametric data as indicated. Data indicated P<0.05 was considered statistically significant.
Breast cancer MDA-MB-231 cells (1×10^5/ml per well) were cultured in a 24-well plate in DMEM containing 10% FBS and 1% P/S for 3 days in the presence or absence of S. horneri active component (50 μg/ml) with or without sodium butyrate (10 and 100 μM), roscovitine (10 and 100 nM) or sulforaphane (1 and 10 nM). Upon completion of culture, the cells were detached from wells, and the number of cells was counted and statistical processing was performed in accordance with the methods described in 2-1-2 and 2-1-3.

SMILES | proliferation of MDA-MB-231 cells in the presence of the inhibitor alone
CCCC(=O)[O-].[Na+] [butyrate, sodium butyrate] | suppressed
C[S+]([O-])CCCCN=C=S (stereo not drawn) [sulforaphane] | suppressed
CC[C@H](CO)Nc1nc(NCc2ccccc2)c2ncn(C(C)C)c2n1 [roscovitine] | suppressed
